Measurements from publication PMC8769072, “Proteome‐scale mapping of binding sites in the unstructured regions of the human proteome” (Molecular Systems Biology, 2022).

System: immobilized GST-tagged bait protein domains
Experiment: ProP-PD phage selections (HD2 P8, sublibraries, HD2 P3, HD1 P8) with NGS and confidence level
Assay type: binding, human
[1] = bait AP2B1_adaptin__P63010_700_937, library HD
[2] = bait AP2B1_adaptin__P63010_700_937, library HD, mean normalised NGS counts
[3] = bait AP2B1_adaptin__P63010_700_937, library HD, mean raw NGS counts, all selections
[4] = bait MAP1LC3B_ATG8 (Q9GZQ8 2-119), HD2 library, benchmark motif instance recovered in the ProP-PD selection (TRUE/FALSE)
[5] = library HD2, bait EPS15_EH__P42566_121_215, whether the validated benchmark motif instance was recovered in the ProP-PD selection (TRUE/FALSE)
[6] = HD2 library, bait SUMO1_SUMO__P63165_1_101, known motif instance of the benchmarking set found (TRUE) or not found (FALSE) among selected peptides
[7] = bait KPNA4_Arm (O00629 68-487), HD2 library, benchmark motif instance recovered in the ProP-PD selection (TRUE/FALSE)
[8] = library HD2, bait YES1_SH3__P07947_90_152, validated benchmark motif instance, in_library_check TRUE, TRUE/FALSE = instance recovered in ProP-PD selection
[9] = bait ANKRA2_Ank__Q9H9E1_142_313, HD2 P8 selection, confidence level -4 to 4: 4 = High, 3 or 2 = Medium, 1 = Low, 0 = Filtered/Noise
[10] = bait MDM2_p53-binding-domain (Q00987 17-125), HD2 library, benchmark motif instance recovered in the ProP-PD selection (TRUE/FALSE)
[11] = library HD2, bait VASP_EVH1__P50552_1_114, validated benchmark motif instance, in_library_check TRUE, TRUE/FALSE = instance recovered in ProP-PD selection
[12] = bait PEX14_Pex14__O75381_16_84, HD2 library, whether the validated benchmark motif instance was recovered in the ProP-PD selection (TRUE/FALSE)
[13] = bait PABP-B_PABP__P11940_544_623, HD2 library, whether the validated benchmark motif instance was recovered in the ProP-PD selection (TRUE/FALSE)
[14] = bait AP2B1_adaptin__P63010_700_937, library HD2, benchmarking set of validated motif instances, TRUE = motif instance recovered in the ProP-PD selection
[15] = library HD2, bait Keap1_KELCH__Q14145_321_609, whether the validated benchmark motif instance was recovered in the ProP-PD selection (TRUE/FALSE)
[16] = bait MAP1LC3A_ATG8 (Q9H492 2-121), HD2 library, benchmark motif instance recovered in the ProP-PD selection (TRUE/FALSE)
[17] = bait MDM2_p53-binding-domain (Q00987 17-125), HD2 library, confidence level (1-4) of best matching peptide
[18] = bait MDM2_p53-binding-domain (Q00987 17-125), HD2 library, specificity score of best matching peptide
[19] = HD2 library, bait CALM1_EF-hand__P0DP23_2_149, benchmark motif instance, in_library_check FALSE, in_library_coverage 0

Substance: DVDYFGQQFDQISNRT
- HD confidence [1]: 2
- HD count proportions [2]: 0.1904
- HD mean counts [3]: 883.25

Substance: DWSNLVDAAKAYEVQR
- HD2-1mM_CaCl confidence (bait CALM1 EF-hand (P0DP23, 2-149), HD2 library selection with 1mM_CaCl, confidence level (4 = High, 2 or 3 = Medium, 1 = Low)): 2
- HD2 confidence (bait CALM1 EF-hand (P0DP23, 2-149), HD2 library selection, confidence level (4 = High, 2 or 3 = Medium, 1 = Low)): 3

Substance: DYDQSRTKVLHMSLNPTSVARQR
- motif_found (bait MAD2L1_HORMA (Q13257 1-205), HD2 library, benchmark motif instance recovered in the ProP-PD selection (TRUE/FALSE)): FALSE

Substance: DYESDDDSYEVLDLTEY
- motif_found [4]: FALSE

Substance: DYFDYESTNPFTAKFRASN
- motif_found [5]: FALSE

Substance: EASKKKVDVIDLTIESSSDE
- motif_found [6]: FALSE

Substance: EATNTTSEPSAPSQDLLDLS
- motif_found (HD2 library, bait TSG101_UEV__Q99816_1_145, known motif instance of the benchmarking set found (TRUE) or not found (FALSE) among selected peptides): FALSE

Substance: ECISSAMPKKKKPSRLKGDNE
- motif_found [7]: FALSE

Substance: EDSPLLEDWDIISPKDVIG [TBC1D25 135-139]
- motif_found (HD2 library, bait MAP1LC3A_ATG8__Q9H492_2_121, benchmark motif instance, in_library_check FALSE, in_library_coverage 0): FALSE
- motif_found (HD2 library, bait MAP1LC3B_ATG8__Q9GZQ8_2_119, benchmark motif instance, in_library_check FALSE, in_library_coverage 0): FALSE

Substance: EEARKSPTPSAPVPLTEPAA
- motif_found (library HD2, bait TSG101_UEV__Q99816_1_145, validated benchmark motif instance, in_library_check TRUE, TRUE/FALSE = instance recovered in ProP-PD selection): FALSE

Substance: EEDQILKKPLPPEPAAAPVST
- motif_found [8]: FALSE

Substance: EEEEAVAGNPFIQPDSPAP
- motif_found [5]: FALSE

Substance: EEEELDESNPFYEPKSTPP
- motif_found [5]: FALSE

Substance: EEEMEVPVLPKISLPI
- HD2 confidence [9]: 2

Substance: EETFQLSRWTPFIKDI
- HD confidence [1]: 3
- HD count proportions [2]: 0.004596
- HD mean counts [3]: 9.0

Substance: EFLSPEVFQHIWDFLEQPICSV
- motif_found [10]: FALSE

Substance: EGALGGAFPPPPPPIEESF
- motif_found [11]: FALSE

Substance: EGTATDRWYDEYHPEEDLQ
- motif_found [12]: FALSE

Substance: EKPVPTLPQFTMGPNV
- HD2 confidence [9]: 3

Substance: ELDKEIKNSFNPEAQVFMPISDPASSV
- motif_found [13]: FALSE

Substance: ELDTNDDDIVFEDFARQRLKGMKDD,DDDIVFEDFARQRL [ARRB1]
- motif_found [14]: FALSE

Substance: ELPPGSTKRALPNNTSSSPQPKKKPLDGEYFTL
- motif_found [7]: FALSE

Substance: ELSMFQLPTLNFSPEQ
- confidence (library HD, bait ANKRA2_Ank__Q9H9E1_142_313, ProP-PD peptides with disease-related mutations): 3

Substance: EPCGQRDSPPDYHLLF
- p3_HD2 confidence (bait NEDD4_WW_4_P46934_890_928, HD2 P3 library, confidence level (4 = High, 2-3 = Medium, 1 = Low)): 4
- p3_HD2 mean counts (bait NEDD4_WW_4_P46934_890_928, HD2 P3 library, mean NGS counts over replicate selections): 3356
- p3_HD2 count proportions (bait NEDD4_WW_4_P46934_890_928, HD2 P3 library, mean proportion of NGS counts): 0.1373

Substance: EPSKPAATRKRRWSAPESRK
- motif_found [7]: FALSE

Substance: EPSTTPNNWADFSSTW
- HD confidence [1]: 3
- HD2 confidence (bait AP2B1_adaptin__P63010_700_937, library HD2 P8): 4
- HD2_endomembrane confidence (bait AP2B1_adaptin__P63010_700_937, library HD2 P8 endomembrane): 4
- HD count proportions [2]: 0.0006275
- HD mean counts [3]: 1.5

Substance: EQVASKGTGLNPNAKVWQEIAPGNTDA
- motif_found [13]: FALSE

Substance: ERSGVIREVMIIEVSSSEEE
- motif_found [6]: FALSE

Substance: ESAKAADDPENGERESHTPV
- motif_found [15]: FALSE

Substance: ESEDYSQPSTSSSIIYSSQ
- motif_found (library HD2, bait USP7_MATH-TRAF__Q93009_53_206, validated benchmark motif instance, in_library_check TRUE, TRUE/FALSE = instance recovered in ProP-PD selection): FALSE

Substance: ESFGGGFADFSTLSKV
- best_specificity (bait AP2B1_adaptin__P63010_700_937, library HD2, best matching peptide): 1
- best_confidence (bait AP2B1_adaptin__P63010_700_937, library HD2, confidence level of best matching peptide (4 = High, 2 or 3 = Medium, 1 = Low)): 3

Substance: ESGSLEDDWDFLPPKKIKD
- motif_found [16]: FALSE
- motif_found [4]: FALSE

Substance: ESSNLCMPDLPHLLAF
- HD2 confidence (bait ANKRA2_Ank__Q9H9E1_142_313, library HD2 P8): 4

Substance: ETPGDGKPPALPPKQS
- p3_HD2 confidence (bait CRK_SH3_1_P46108_124_198, HD2 P3 library, confidence level (4 = High, 2-3 = Medium, 1 = Low)): 3
- p3_HD2 mean counts (bait CRK_SH3_1_P46108_124_198, HD2 P3 library, mean NGS counts over replicate selections): 437.0
- p3_HD2 count proportions (bait CRK_SH3_1_P46108_124_198, HD2 P3 library, mean proportion of NGS counts): 0.01474

Substance: ETRICKIYDSPCLPEAEAMFA
- motif_found [8]: FALSE

Substance: FADFSTLSKVNNEDPF
- HD confidence [1]: 3
- HD count proportions [2]: 0.0005532
- HD mean counts [3]: 1.25

Substance: FASKPPTTNPFL-------
- motif_found [5]: FALSE

Substance: FASQEKFFQELFDSELASQ
- motif_found [12]: FALSE

Substance: FATLPRKKNPFEESSETWD
- motif_found [5]: FALSE

Substance: FDIDMDAPETERAAVAIQSQFRKFQKKKAGSQS,DMDAPETERAAVAIQSQFRKFQKKKAGSQS---- [PCP4]
- motif_found (bait CALM1_EF-hand__P0DP23_2_149, library HD2, benchmarking set of validated motif instances, TRUE = motif instance recovered in the ProP-PD selection): FALSE

Substance: FEAQWAALEGKATVEK
- motif_found [10]: TRUE
- best_confidence [17]: 3
- best_specificity [18]: 1

Substance: FEAQWAALENKSKQRT
- motif_found [10]: TRUE
- best_confidence [17]: 3
- best_specificity [18]: 0.97

Substance: FFAQLQLDEETGEFLPIQPA
- motif_found [15]: FALSE

Substance: FGPPPQVPSRPNRAPPGVPS [DNM1]
- motif_found (bait CRK_SH3_1_P46108_124_198, library HD2, benchmarking set of validated motif instances, TRUE = motif instance recovered in the ProP-PD selection): FALSE

Substance: FITGLTRTNPFSDRTAAPG
- motif_found [5]: FALSE

Substance: FLGNGNELEWEDDTPVATAKNMPG
- motif_found (library HD2, bait KLC1_TPR__Q07866_203_497, whether the validated benchmark motif instance was recovered in the ProP-PD selection (TRUE/FALSE)): FALSE

Substance: FLKLKNAATLIQRHWRGHNCRKNYGLMRLGF [MYO7A 771-787]
- motif_found [19]: FALSE

Substance: FPTDERSWVYSPLHYS
- HD confidence (bait TLN1_PTB__Q9Y490_309_401, library HD): 3
- p3_HD2 confidence (bait TLN1_PTB__Q9Y490_309_401, library HD2 P3): 2
- p3_HD2 count proportions (bait TLN1_PTB__Q9Y490_309_401, library HD2 P3, mean normalised NGS counts): 0.001295
- p3_HD2 mean counts (bait TLN1_PTB__Q9Y490_309_401, library HD2 P3, mean raw NGS counts, all selections): 12.2
- HD2 confidence (bait TLN1_PTB__Q9Y490_309_401, library HD2 P8): 4
- HD2_nc confidence (bait TLN1_PTB__Q9Y490_309_401, library HD2 P8 nucleocytoplasmic): 3
- HD2_nc count proportions (bait TLN1_PTB__Q9Y490_309_401, library HD2 P8 nucleocytoplasmic, mean normalised NGS counts): 0.1307
- HD2_nc mean counts (bait TLN1_PTB__Q9Y490_309_401, library HD2 P8 nucleocytoplasmic, mean raw NGS counts, all selections): 5802.8
- HD count proportions (bait TLN1_PTB__Q9Y490_309_401, library HD, mean normalised NGS counts): 0.08207
- HD mean counts (bait TLN1_PTB__Q9Y490_309_401, library HD, mean raw NGS counts, all selections): 2181

Substance: FPTGSSSTNPFL-------
- motif_found [5]: FALSE

Substance: FRHRLWAVLTVQAYARGMIARRLHQRLRAEY [MYO7A 840-856]
- motif_found [19]: FALSE

Substance: FRPENEEDILVVTTQGEVE
- motif_found [16]: FALSE
- motif_found [4]: FALSE

Substance: GAQASVGSRSEGEGEAASADDG
- motif_found (HD2 library, bait TNKS_TANK-peptide-bind__O95271_174_649, known motif instance of the benchmarking set found (TRUE) or not found (FALSE) among selected peptides): FALSE

Substance: GCMKTCPLIDLEVDNGPAQ [GGA2]
- motif_found (bait CLTC_Clathrin-propeller__Q00610_1_364, library HD2, benchmarking set of validated motif instances, TRUE = motif instance recovered in the ProP-PD selection): FALSE

Substance: GDSQGRKRRQTSMTDFYHSKRRLIFSKRKP-
- motif_found [7]: FALSE

Substance: GEAWGHSSRTSPLDNV
- HD2_nucleus confidence (bait WDR5_WD_1234567_P61964_21_334, library HD2 P8 nucleus): 4

Substance: GEYVRVKLQLNPAAREFKPDVKSKPVS
- motif_found [13]: FALSE

Substance: GGFDTEPDEFSDFDRLRTALPTSG [EPN1]
- motif_found [14]: FALSE

Substance: GGMNWADLLPPPPAHP
- best_confidence (library HD2, bait VASP_EVH1__P50552_1_114, confidence level of best matching selected peptide (4 High, 2-3 Medium, 1 Low)): 3
- best_specificity (library HD2, bait VASP_EVH1__P50552_1_114, specificity score of best matching selected peptide): 0.99
- motif_found [11]: TRUE

Substance: GHPESPPRKRLKSKGSDKDF
- motif_found [7]: FALSE
